{"source": "ChEMBL document CHEMBL5614407", "about": "“Design, synthesis and structure-activity relationship of novel 2-pyrimidinylindole derivatives as orally available anti-obesity agents” (Eur J Med Chem, 2024)", "key": {"Mus musculus [1]": {"tested_on": "Mus musculus", "assay": "Anti-obesity activity against high-fat and high-cholesterol diet fed-induced obesity C57BL/6J mouse model assessed as decrease in fat mass by measuring decrease in epididymal white adipose tissue accumulation at 40 mg/kg, ig administered every other day for 3 weeks", "format": "functional, organism-based"}, "3T3-L1 [2]": {"tested_on": "3T3-L1", "assay": "Lipid-lowering activity in differentiated mouse 3T3-L1 cells assessed as reduction in lipid droplet accumulation incubated in differentiation medium for 9 days by Oil Red O staining based analysis", "format": "functional, cell-based", "details": "3T3-L1, 216 h"}, "[3]": {"assay": "Cytotoxicity against undifferentiated mouse 3T3-L1 cells assessed as reduction in cell viability incubated for 24 hrs by SRB assay", "format": "toxicity, cell-based", "details": "undifferentiated 3T3-L1 cells"}, "[4]": {"assay": "Relative Therapeutic index, ratio of IC50 for cytotoxicity against mouse 3T3-L1 cells to EC50 for lipid-lowering activity in differentiated mouse 3T3-L1 cells", "format": "toxicity, cell-based", "details": "read-out: Ratio IC50/EC50"}, "[5]": {"assay": "Toxicity against C57BL/6 mouse assessed as proportion of animal survival at 500 mg/kg, ig and measured on day 7", "format": "organism-based", "details": "in vivo, po, time 7 day"}, "Mus musculus [6]": {"tested_on": "Mus musculus", "assay": "Anti-obesity activity against high-fat and high-cholesterol diet fed-induced obesity C57BL/6J mouse model assessed as decrease in body weight at 40 mg/kg, ig administered every other day for 3 weeks", "format": "functional, organism-based"}, "Mus musculus [7]": {"tested_on": "Mus musculus", "assay": "Anti-obesity activity against high-fat and high-cholesterol diet fed-induced obesity C57BL/6J mouse model assessed as decrease in food intake at 40 mg/kg, ig administered every other day for 3 weeks", "format": "functional, organism-based"}, "Mus musculus [8]": {"tested_on": "Mus musculus", "assay": "Anti-obesity activity against high-fat and high-cholesterol diet fed-induced obesity C57BL/6J mouse model assessed as decrease in body weight at 20 mg/kg, ig administered every other day for 3 weeks", "format": "functional, organism-based"}, "Mus musculus [9]": {"tested_on": "Mus musculus", "assay": "Anti-obesity activity against high-fat and high-cholesterol diet fed-induced obesity C57BL/6J mouse model assessed as decrease in food intake at 20 mg/kg, ig administered every other day for 3 weeks", "format": "functional, organism-based"}, "Mus musculus [10]": {"tested_on": "Mus musculus", "assay": "Anti-obesity activity against high-fat and high-cholesterol diet fed-induced obesity C57BL/6J mouse model assessed as decrease in liver mass at 40 mg/kg, ig administered every other day for 3 weeks", "format": "functional, organism-based"}, "Mus musculus [11]": {"tested_on": "Mus musculus", "assay": "Anti-obesity activity against high-fat and high-cholesterol diet fed-induced obesity C57BL/6J mouse model assessed as decrease in fat mass by measuring decrease in inguinal subcutaneous white adipose tissue accumulation at 40 mg/kg, ig administered every other day for 3 weeks", "format": "functional, organism-based"}, "Mus musculus [12]": {"tested_on": "Mus musculus", "assay": "Anti-obesity activity against high-fat and high-cholesterol diet fed-induced obesity C57BL/6J mouse model assessed as decrease in fat mass by measuring decrease in brown adipose tissue accumulation at 40 mg/kg, ig administered every other day for 3 weeks", "format": "functional, organism-based"}, "Mus musculus [13]": {"tested_on": "Mus musculus", "assay": "Anti-obesity activity against high-fat and high-cholesterol diet fed-induced obesity C57BL/6J mouse model assessed as decrease in lipid accumulation in liver at 40 mg/kg, ig administered every other day for 3 weeks by Hematoxylin-Eosin staining based microscopy", "format": "functional, organism-based"}, "Mus musculus [14]": {"tested_on": "Mus musculus", "assay": "Anti-obesity activity against high-fat and high-cholesterol diet fed-induced obesity C57BL/6J mouse model assessed as decrease in lipid accumulation in liver at 40 mg/kg, ig administered every other day for 3 weeks by Oil Red O staining based microscopy", "format": "functional, organism-based"}, "Mus musculus [15]": {"tested_on": "Mus musculus", "assay": "Anti-obesity activity against high-fat and high-cholesterol diet fed-induced obesity C57BL/6J mouse model assessed as decrease in inguinal subcutaneous white adipose tissue accumulation at 40 mg/kg, ig administered every other day for 3 weeks by Hematoxylin-Eosin staining based microscopy", "format": "functional, organism-based"}, "Mus musculus [16]": {"tested_on": "Mus musculus", "assay": "Anti-obesity activity against high-fat and high-cholesterol diet fed-induced obesity C57BL/6J mouse model assessed as decrease in epididymal white adipose tissue accumulation at 40 mg/kg, ig administered every other day for 3 weeks by Hematoxylin-Eosin staining based microscopy", "format": "functional, organism-based"}, "3T3-L1 [17]": {"tested_on": "3T3-L1", "assay": "Lipid-lowering activity in differentiated mouse 3T3-L1 cells assessed as reduction in lipid droplet accumulation measured during adipogenesis stage (0 to 3 days) by Oil Red O staining based analysis", "format": "functional, cell-based", "details": "time 3.0 day"}, "3T3-L1 [18]": {"tested_on": "3T3-L1", "assay": "Lipid-lowering activity in differentiated mouse 3T3-L1 cells assessed as decrease in C/ebpa gene expression at 0.05 to 0.2 uM incubated for 3 days by RT-PCR analysis", "format": "functional, cell-based", "details": "dose 0.05-0.2 µM, time 3.0 day"}, "3T3-L1 [19]": {"tested_on": "3T3-L1", "assay": "Lipid-lowering activity in differentiated mouse 3T3-L1 cells assessed as decrease in C/ebpbeta gene expression at 0.05 to 0.2 uM incubated for 3 days by RT-PCR analysis", "format": "functional, cell-based", "details": "dose 0.05-0.2 µM, time 3.0 day"}, "3T3-L1 [20]": {"tested_on": "3T3-L1", "assay": "Lipid-lowering activity in differentiated mouse 3T3-L1 cells assessed as decrease in PPAR-gamma gene expression at 0.05 to 0.2 uM incubated for 3 days by RT-PCR analysis", "format": "functional, cell-based", "details": "dose 0.05-0.2 µM, time 3.0 day"}, "3T3-L1 [21]": {"tested_on": "3T3-L1", "assay": "Lipid-lowering activity in differentiated mouse 3T3-L1 cells assessed as decrease in ATP citrate lyase gene expression at 0.05 to 0.2 uM incubated for 3 days by RT-PCR analysis", "format": "functional, cell-based", "details": "dose 0.05-0.2 µM, time 3.0 day"}, "3T3-L1 [22]": {"tested_on": "3T3-L1", "assay": "Lipid-lowering activity in differentiated mouse 3T3-L1 cells assessed as decrease in fatty acid synthase gene expression at 0.05 to 0.2 uM incubated for 3 days by RT-PCR analysis", "format": "functional, cell-based", "details": "dose 0.05-0.2 µM, time 3.0 day"}, "3T3-L1 [23]": {"tested_on": "3T3-L1", "assay": "Lipid-lowering activity in differentiated mouse 3T3-L1 cells assessed as decrease in acetyl-CoA carboxylase gene expression at 0.05 to 0.2 uM incubated for 3 days by RT-PCR analysis", "format": "functional, cell-based", "details": "dose 0.05-0.2 µM, time 3.0 day"}, "3T3-L1 [24]": {"tested_on": "3T3-L1", "assay": "Lipid-lowering activity in differentiated mouse 3T3-L1 cells assessed as decrease in stearoyl-CoA desaturase 1 gene expression at 0.05 to 0.2 uM incubated for 3 days by RT-PCR analysis", "format": "functional, cell-based", "details": "dose 0.05-0.2 µM, time 3.0 day"}, "3T3-L1 [25]": {"tested_on": "3T3-L1", "assay": "Lipid-lowering activity in differentiated mouse 3T3-L1 cells assessed as decrease in fatty acid elongase 6 gene expression at 0.05 to 0.2 uM incubated for 3 days by RT-PCR analysis", "format": "functional, cell-based", "details": "dose 0.05-0.2 µM, time 3.0 day"}, "3T3-L1 [26]": {"tested_on": "3T3-L1", "assay": "Lipid-lowering activity in differentiated mouse 3T3-L1 cells assessed as increase in carnitine palmitoyl transferase 1A gene expression at 0.05 to 0.2 uM incubated for 3 days by RT-PCR analysis", "format": "functional, cell-based", "details": "dose 0.05-0.2 µM, time 3.0 day"}, "[27]": {"assay": "Metabolic stability of the compound in rat liver microsomes assessed as drug degradation at […] preincubated for 5 mins followed by NADPH addition and measured for 40 mins by LC-MS/MS analysis", "format": "ADME, Microsome", "details": "time 45 min, read-out: Drug degradation"}, "Mus musculus [28]": {"tested_on": "Mus musculus", "assay": "Anti-obesity activity against high-fat and high-cholesterol diet fed-induced obesity C57BL/6J mouse model assessed as decrease in triglyceride level in blood at 40 mg/kg, ig administered every other day for 3 weeks", "format": "functional, organism-based"}, "Mus musculus [29]": {"tested_on": "Mus musculus", "assay": "Anti-obesity activity against high-fat and high-cholesterol diet fed-induced obesity C57BL/6J mouse model assessed as decrease in LDH level in blood at 40 mg/kg, ig administered every other day for 3 weeks", "format": "functional, organism-based"}}, "note": "Activity calls are given as the source filed them. The rule behind the calls is not given here.", "data": [{"smiles": "COC(=O)N/N=C/c1c(-c2nc(C)c(F)c(NCCN3CCCC3)n2)[nH]c2ccc(OC)cc12", "values": [{"measurement": "Activity", "setting": "Mus musculus [1]", "value": "Active"}, {"measurement": "EC50", "setting": "3T3-L1 [2]", "value": 0.07, "unit": "µM"}, {"measurement": "IC50 at 24 h", "setting": "[3]", "value": 23.9, "unit": "µM"}, {"measurement": "selectivity ratio", "setting": "[4]", "value": 341}, {"measurement": "survival at 168 h", "setting": "[5]", "value": 16.7, "unit": "%"}, {"measurement": "Activity", "setting": "Mus musculus [6]", "value": "Active"}, {"measurement": "Activity", "setting": "Mus musculus [7]", "value": "Active"}, {"measurement": "Activity", "setting": "Mus musculus [8]", "value": "Active"}, {"measurement": "Activity", "setting": "Mus musculus [9]", "value": "Active"}, {"measurement": "Activity", "setting": "Mus musculus [10]", "value": "Active"}, {"measurement": "Activity", "setting": "Mus musculus [11]", "value": "Active"}, {"measurement": "Activity", "setting": "Mus musculus [12]", "value": "Active"}, {"measurement": "Activity", "setting": "Mus musculus [13]", "value": "Active"}, {"measurement": "Activity", "setting": "Mus musculus [14]", "value": "Active"}, {"measurement": "Activity", "setting": "Mus musculus [15]", "value": "Active"}, {"measurement": "Activity", "setting": "Mus musculus [16]", "value": "Active"}, {"measurement": "Activity", "setting": "3T3-L1 [17]", "value": "Active"}, {"measurement": "Activity", "setting": "3T3-L1 [18]", "value": "Active"}, {"measurement": "Activity", "setting": "3T3-L1 [19]", "value": "Active"}, {"measurement": "Activity", "setting": "3T3-L1 [20]", "value": "Active"}, {"measurement": "Activity", "setting": "3T3-L1 [21]", "value": "Active"}, {"measurement": "Activity", "setting": "3T3-L1 [22]", "value": "Active"}, {"measurement": "Activity", "setting": "3T3-L1 [23]", "value": "Active"}, {"measurement": "Activity", "setting": "3T3-L1 [24]", "value": "Active"}, {"measurement": "Activity", "setting": "3T3-L1 [25]", "value": "Active"}, {"measurement": "Activity", "setting": "3T3-L1 [26]", "value": "Active"}, {"measurement": "metabolised at 40 min", "setting": "[27]", "value": 1, "unit": "%"}, {"measurement": "Activity", "setting": "Mus musculus [28]", "value": "Active"}, {"measurement": "Activity", "setting": "Mus musculus [29]", "value": "Active"}]}]}
